Usually Emax stands for the greatest response seen or fitted, relative to the assay's reference.

In the test the target is T1, Human AMPK α2ß2γ1 (Homo sapiens, UniProt O43741+P54646).
T1 construct: The full length cDNAs of human AMPK ß2 (NM_005399.3) and human AMPK α2 (NM_006252.3); The full length cDNAs of human AMPK ß2 (NM_005399.3); 6xHis (N); made in house; host or cells: Escherichia coli BL21 CodonPlus (DE3)-RIL
The test can be described thus: Test Example 2: evaluation of an activator for AMP-activated protein kinase (AMPK), LabChip mobility shift assay with CaMKK2-phosphorylated enzyme. It is filed as biochemical. The note with it: for EC150 (compound concentration showing 150% relative to the control (100%)): FL-Peptide 7 substrate, 25° C., 2 hours; for Emax / Emax (maximum rate of increase in activity within the measurement range): relative to control (100%); for Emax: read-out: Emax (maximum rate of increase in activity within the measurement range). The protocol: The full length cDNAs of human AMPK ß2 (NM_005399.3) and human AMPK α2 (NM_006252.3) were inserted into the MCS1 and MCS2 of the pETDuet-1 vector to prepare a human AMPK ß2 and human AMPK α2 (6× His tag at the 5′ terminus) expressing plasmid. The plasmid was cotransfected with an expression plasmid, in which the full length cDNA of human AMPK γ1 (NM_002733.3) had been inserted into pET28b(+), into BL21 CodonPlus (DE3)-RIL to obtain an expression strain. The expression strain was cultured in TB medium, followed by induction with 0.5 mM IPTG, and cultured at 25° C. for 3 hours and then harvested. After ultrasonication, supernatant was collected and applied to Histrap FF column (GE) and RESOURCE Q column (GE) to prepare 12.5 mg of purified sample containing three types of subunit from 1.8 L of broth.
Preparation method of human CaMKK2 used to impart activity to AMPK An expression vector, in which the full length cDNA of human CAMKK ß (NM_172226.1) had been inserted into pGEX-6P-3, was transfected into BL21 Star (DE3). The expression strain was cultured in TB medium, followed by induction with 0.5 mM IPTG, and cultured at 25° C. for 3 hours and then harvested. After ultrasonication, supernatant was collected and applied to GSTrap FF column (GE) to prepare 14 mg of GST-fused CAMKK ß from 720 ml of broth.
Thus, phosphorylation treatment was carried out as pretreatment.
Human AMPK α2ß2γ1 in an amount to give a conversion rate of approximately 10% by reaction for 2 hours, and CaMKK2 in an amount capable of sufficiently imparting activity to AMPK for one hour were mixed in a buffer solution consisting of a 50 mM HEPES-NaOH buffer solution (pH 7.0), 100 mM NaCl, 5 mM magnesium chloride, 0.1% bovine serum albumin, 0.2 mM sodium orthovanadate(V), 1 mM ethylene glycol-bis(2-aminoethyl ether)-N,N,N′,N′-tetraacetic acid (EGTA), 5 mM disodium ß-glycerophosphate, 1 mM dithiothreitol and 0.2 mM ATP, and the resulting liquid was left to stand at 25° C. for 1 to 1.5 hours to sufficiently phosphorylate AMPK.
After that, to the enzyme liquid, which had been subjected to phosphorylation treatment, a compound dissolved in DMSO was added so as to have a 1% DMSO concentration. The resulting liquid was left to stand for 10 minutes.
To the liquid, a substrate solution consisting of a 50 mM HEPES-NaOH buffer solution (pH 7.0), 100 mM NaCl, 10 mM magnesium chloride, 0.1% bovine serum albumin, 0.2 mM sodium orthovanadate(V), 1 mM ethylene glycol-bis(2-aminoethyl ether)-N,N,N′,N′-tetraacetic acid (EGTA), 5 mM disodium ß-glycerophosphate, 2 mM dithiothreitol, 0.4 mM ATP and 3 μM FL-Peptide 7 (manufactured by Caliper Life Sciences, Inc.) was added in equal amount (10 μl in total). The resulting liquid was allowed to react at 25° C. for 2 hours, and 10 μl of 20 mM EDTA was added thereto to stop the reaction.
To detect phosphorylated fluorescent substrates, the reaction mixture was applied to a measuring device, LabChip EZ Reader II manufactured by Caliper Life Science, Inc., for detecting fluorescence by using differences in mobility due to differences in charge. The setting conditions for the device were pressure, −1.5 PSI; upstream voltage, −2250 V; downstream voltage, −400 V; post sample buffer sip time, 40 seconds; final delay, 120 seconds; and peak order, Product First.
A conversion rate was calculated from the peak heights of the obtained substrate and product. The conversion rate when not containing a compound was used as a control, and a concentration dependent curve was made by plotting the rate of increase in activity to the control at each concentration of a compound.

T1 sequence (P54646 whole entry): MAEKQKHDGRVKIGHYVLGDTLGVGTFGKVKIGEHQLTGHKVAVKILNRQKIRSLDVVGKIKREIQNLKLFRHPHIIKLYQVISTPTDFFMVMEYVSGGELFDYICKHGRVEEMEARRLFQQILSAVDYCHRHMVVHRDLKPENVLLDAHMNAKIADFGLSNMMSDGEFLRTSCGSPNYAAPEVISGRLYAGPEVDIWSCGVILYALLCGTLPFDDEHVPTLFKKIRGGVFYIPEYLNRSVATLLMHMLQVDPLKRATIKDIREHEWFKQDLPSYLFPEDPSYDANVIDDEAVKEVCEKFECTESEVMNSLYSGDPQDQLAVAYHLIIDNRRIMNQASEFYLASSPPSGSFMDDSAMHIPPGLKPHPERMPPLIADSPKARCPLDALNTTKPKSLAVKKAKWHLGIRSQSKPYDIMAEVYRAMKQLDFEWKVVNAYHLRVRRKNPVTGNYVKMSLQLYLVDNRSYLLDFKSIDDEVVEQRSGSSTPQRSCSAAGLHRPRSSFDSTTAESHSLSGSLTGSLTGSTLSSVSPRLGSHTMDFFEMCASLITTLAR
T1 sequence (O43741 whole entry): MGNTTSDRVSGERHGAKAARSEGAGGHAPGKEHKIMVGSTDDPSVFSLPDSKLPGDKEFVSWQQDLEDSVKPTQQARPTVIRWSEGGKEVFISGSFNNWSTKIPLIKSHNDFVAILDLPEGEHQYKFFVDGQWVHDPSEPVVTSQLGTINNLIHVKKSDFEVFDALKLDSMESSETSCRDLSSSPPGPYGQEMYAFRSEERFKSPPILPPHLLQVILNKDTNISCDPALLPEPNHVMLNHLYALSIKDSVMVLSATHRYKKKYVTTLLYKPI
T1 sequence (P54619 whole entry partner): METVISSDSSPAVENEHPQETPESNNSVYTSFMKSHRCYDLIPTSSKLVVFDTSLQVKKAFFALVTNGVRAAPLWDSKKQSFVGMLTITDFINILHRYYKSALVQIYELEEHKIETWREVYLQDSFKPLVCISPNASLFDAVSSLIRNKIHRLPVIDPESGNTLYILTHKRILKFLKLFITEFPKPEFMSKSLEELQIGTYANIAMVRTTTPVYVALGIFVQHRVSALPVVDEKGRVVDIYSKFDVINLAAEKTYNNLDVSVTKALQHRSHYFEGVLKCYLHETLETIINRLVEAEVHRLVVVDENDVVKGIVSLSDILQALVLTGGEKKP

For the compound `O[C@@H]1CO[C@H]2[C@@H]1OC[C@H]2Oc1nc2nc(NC3CCc4cc(OCCN5CCCCC5)cc(F)c43)c(Cl)cc2[nH]1` (stereo partly drawn) [Compound I-1-38], the “EC150 (compound concentration showing 150% relative to the control (100%))” value is 8 nM and the Emax came to 392%.
For `Cn1ccc(-c2cc(F)c3c(c2)CCC3Nc2nc3nc(O[C@@H]4CO[C@H]5[C@@H]4OC[C@H]5O)[nH]c3cc2Cl)cc1=O` (stereo partly drawn) [Compound I-1-39], in that order: 2.9 nM and 384%.
For `NC(=O)COc1cc(F)c2c(c1)CCC2Nc1nc2nc(O[C@@H]3CO[C@H]4[C@@H]3OC[C@H]4O)[nH]c2cc1Cl` (stereo partly drawn) [Compound I-1-42], in that order: 2.1 nM and 391%.
The matching figures for `O=C(COc1cc(F)c2c(c1)CCC2Nc1nc2nc(O[C@@H]3CO[C@H]4[C@@H]3OC[C@H]4O)[nH]c2cc1Cl)NCO` (stereo partly drawn) [Compound I-1-43]: 6.5 nM and 392%.
As to `Cn1cc(-c2cc(F)c3c(c2)CCC3Nc2nc3nc(O[C@@H]4CO[C@H]5[C@@H]4OC[C@H]5O)[nH]c3cc2Cl)cn1` (stereo partly drawn) [Compound I-1-44], the “EC150 (compound concentration showing 150% relative to the control (100%))” value is recorded as 5.6 nM and the maximal effect (Emax) amounted to 422%.
For `CC(=O)Nc1cc(F)c2c(c1)CCC2Nc1nc2nc(O[C@@H]3CO[C@H]4[C@@H]3OC[C@H]4O)[nH]c2cc1Cl` (stereo partly drawn) [Compound I-1-45], in that order: 4.7 nM and 435%.
As to `O[C@@H]1CO[C@H]2[C@@H]1OC[C@H]2Oc1nc2nc(NC3CCc4cc(-c5ccccc5)cnc43)c(Cl)cc2[nH]1` (stereo partly drawn) [Compound I-1-46], the “EC150 (compound concentration showing 150% relative to the control (100%))” value is reported as 54 nM and the Emax amounted to 381%.
For `NC(=O)COc1cnc2c(c1)CCC2Nc1nc2nc(O[C@@H]3CO[C@H]4[C@@H]3OC[C@H]4O)[nH]c2cc1Cl` (stereo partly drawn) [Compound I-1-47], in that order: 14 nM and 390%.
For the compound `O[C@@H]1CO[C@H]2[C@@H]1OC[C@H]2Oc1nc2nc(NC3CCc4cc(C5=CCOCC5)cnc43)c(Cl)cc2[nH]1` (stereo partly drawn) [Compound I-1-48], the “EC150 (compound concentration showing 150% relative to the control (100%))” value is reported as 15 nM and the Emax came to 393%.
For `O[C@@H]1CO[C@H]2[C@@H]1OC[C@H]2Oc1nc2nc(NC3CCc4cc(NCC(F)(F)F)cnc43)c(Cl)cc2[nH]1` (stereo partly drawn) [Compound I-1-70], in that order: 21 nM and 384%.
For `C/C=C/c1cc(F)c2c(c1)CCC2Oc1nc2nc(O[C@@H]3CO[C@H]4[C@@H]3OC[C@H]4O)[nH]c2cc1Cl` (stereo partly drawn) [Compound I-1-72], in that order: 13 nM and 375%.
Consider `O[C@@H]1CO[C@H]2[C@@H]1OC[C@H]2Oc1nc2nc(OC3CCc4cc(-c5cscn5)cc(F)c43)c(Cl)cc2[nH]1` (stereo partly drawn) [Compound I-1-74], for which the “EC150 (compound concentration showing 150% relative to the control (100%))” value is given as 9.9 nM and the Emax is 373%.
For `Cn1nccc1-c1cc(F)c2c(c1)CCC2Oc1nc2nc(O[C@@H]3CO[C@H]4[C@@H]3OC[C@H]4O)[nH]c2cc1Cl` (stereo partly drawn) [Compound I-1-76], the “EC150 (compound concentration showing 150% relative to the control (100%))” value was 15 nM and the Emax came to 378%.
The matching figures for `Cn1cccc(-c2cc(F)c3c(c2)CCC3Oc2nc3nc(O[C@@H]4CO[C@H]5[C@@H]4OC[C@H]5O)[nH]c3cc2Cl)c1=O` (stereo partly drawn) [Compound I-1-77]: 3.3 nM and 386%.
Consider `O=C1CCCN1CCOc1cc(F)c2c(c1)CCC2Nc1nc2nc(O[C@@H]3CO[C@H]4[C@@H]3OC[C@H]4O)[nH]c2cc1Cl` (stereo partly drawn) [Compound I-1-79], for which the “EC150 (compound concentration showing 150% relative to the control (100%))” value was found to be 4.2 nM and the “Emax (maximum rate of increase in activity within the measurement range)” value stood at 385%.
With `OCCCOc1cc(F)c2c(c1)CCC2Nc1nc2nc(O[C@@H]3CO[C@H]4[C@@H]3OC[C@H]4O)[nH]c2cc1Cl` (stereo partly drawn) [Compound I-1-81], the “EC150 (compound concentration showing 150% relative to the control (100%))” value amounted to 1.6 nM and the Emax stood at 387%.
The matching figures for `O[C@@H]1CO[C@H]2[C@@H]1OC[C@H]2Oc1nc2nc(NC3CCc4cc(OCC5CCO5)cc(F)c43)c(Cl)cc2[nH]1` (stereo partly drawn) [Compound I-1-83]: 2.2 nM and 414%.
As for `COc1ccc(-c2cc(F)c3c(c2)CCC3Nc2nc3nc(O[C@@H]4CO[C@H]5[C@@H]4OC[C@H]5O)[nH]c3cc2Cl)cn1` (stereo partly drawn) [Compound I-1-86], the “EC150 (compound concentration showing 150% relative to the control (100%))” value was 28 nM and the “Emax (maximum rate of increase in activity within the measurement range)” value is given as 379%.
Consider `CC(C)(O)CCOc1cc(F)c2c(c1)CCC2Nc1nc2nc(O[C@@H]3CO[C@H]4[C@@H]3OC[C@H]4O)[nH]c2cc1Cl` (stereo partly drawn) [Compound I-1-88], for which the “EC150 (compound concentration showing 150% relative to the control (100%))” value is 5.9 nM and the Emax was 376%.
For `CCOc1cc(F)c2c(c1)CCC2Nc1nc2nc(O[C@@H]3CO[C@H]4[C@@H]3OC[C@H]4O)[nH]c2cc1Cl` (stereo partly drawn) [Compound I-1-90], in that order: 11 nM and 382%.
For the compound `O[C@@H]1CO[C@H]2[C@@H]1OC[C@H]2Oc1nc2nc(NC3CCc4cc(-c5ccnnc5)cc(F)c43)c(Cl)cc2[nH]1` (stereo partly drawn) [Compound I-1-91], the “EC150 (compound concentration showing 150% relative to the control (100%))” value is 1.2 nM and the Emax came out at 466%.
For `O[C@@H]1CO[C@H]2[C@@H]1OC[C@H]2Oc1nc2nc(NC3CCc4cc(OC5CCNCC5)cc(F)c43)c(Cl)cc2[nH]1` (stereo partly drawn) [Compound I-1-93], in that order: 4 nM and 444%.
As for `COC/C=C/c1cc(F)c2c(c1)CC[C@@H]2Nc1nc2nc(O[C@@H]3CO[C@H]4[C@@H]3OC[C@H]4O)[nH]c2cc1Cl` [Compound I-1-94], the “EC150 (compound concentration showing 150% relative to the control (100%))” value was found to be 5.6 nM and the Emax was 416%.
The matching figures for `CCOCCOc1cc(F)c2c(c1)CC[C@@H]2Nc1nc2nc(O[C@@H]3CO[C@H]4[C@@H]3OC[C@H]4O)[nH]c2cc1Cl` [Compound I-1-95]: 1.3 nM and 424%.
`O[C@@H]1CO[C@H]2[C@@H]1OC[C@H]2Oc1nc2nc(NC3CCc4cc(OCCN5CCOCC5)cc(F)c43)c(Cl)cc2[nH]1` (stereo partly drawn) [Compound I-1-96]: the “EC150 (compound concentration showing 150% relative to the control (100%))” value came to 3.6 nM and the Emax stood at 430%.
The matching figures for `O[C@@H]1CO[C@H]2[C@@H]1OC[C@H]2Oc1nc2nc(NC3CCc4cc(OCCN5CCCC5)cc(F)c43)c(Cl)cc2[nH]1` (stereo partly drawn) [Compound I-1-97]: 2.1 nM and 433%.
With `O=C1CCCN1CCOc1cc(F)c2c(c1)CCC2Nc1nc2nc(O[C@@H]3CO[C@H]4[C@@H]3OC[C@H]4O)[nH]c2cc1Cl` (stereo partly drawn) [Compound I-1-98], the “EC150 (compound concentration showing 150% relative to the control (100%))” value stood at 3.6 nM and the “Emax (maximum rate of increase in activity within the measurement range)” value is 434%.
